# Calls of active or inactive are those of the source. The calls are words filed in the database; no cut-off is given here.
# How the values were obtained:
# [1] = target: Proteinase-activated receptor 2 (Homo sapiens) (UniProt P55085); assay: Inhibition of PAR2-mediated TNFalpha and SLIGKV-NH2-induced interleukin-8 production in normal human epidermal keratinocytes at 10 uM by ELISA
# [2] = Cytotoxicity against normal human epidermal keratinocytes at 5 uM after 72 hrs by MTT assay; format: cell-based; conditions: keratinocyte
# [3] = target: Proteinase-activated receptor 2 (Homo sapiens) (UniProt P55085); assay: Inhibition of PAR2 gene expression in normal human epidermal keratinocytes at 10 uM after 48 hrs by quantitative RT-PCR
# [4] = Cytotoxicity against normal human epidermal keratinocytes at 100 uM after 72 hrs by MTT assay; format: cell-based; conditions: keratinocyte
# [5] = target: Proteinase-activated receptor 2 (Homo sapiens) (UniProt P55085); assay: Inhibition of PAR2-mediated IL1-beta and SLIGKV-NH2-induced interleukin-8 production in normal human epidermal keratinocytes at 10 uM by ELISA
# [6] = target: Proteinase-activated receptor 2 (Homo sapiens) (UniProt P55085); assay: Inhibition of PAR2-mediated SLIGKV-NH2-induced interleukin-8 production in normal human epidermal keratinocytes at 10 uM after 24 hrs by ELISA
# [7] = target: Proteinase-activated receptor 2 (Homo sapiens) (UniProt P55085); assay: Inhibition of PAR2-mediated SLIGKV-NH2-induced interleukin-8 production in normal human epidermal keratinocytes at 5 uM after 24 hrs by ELISA
# [8] = Cytotoxicity against normal human epidermal keratinocytes at 10 uM after 72 hrs by MTT assay; format: cell-based; conditions: keratinocyte
# Sequence of Proteinase-activated receptor 2 (Homo sapiens) (P55085 whole entry): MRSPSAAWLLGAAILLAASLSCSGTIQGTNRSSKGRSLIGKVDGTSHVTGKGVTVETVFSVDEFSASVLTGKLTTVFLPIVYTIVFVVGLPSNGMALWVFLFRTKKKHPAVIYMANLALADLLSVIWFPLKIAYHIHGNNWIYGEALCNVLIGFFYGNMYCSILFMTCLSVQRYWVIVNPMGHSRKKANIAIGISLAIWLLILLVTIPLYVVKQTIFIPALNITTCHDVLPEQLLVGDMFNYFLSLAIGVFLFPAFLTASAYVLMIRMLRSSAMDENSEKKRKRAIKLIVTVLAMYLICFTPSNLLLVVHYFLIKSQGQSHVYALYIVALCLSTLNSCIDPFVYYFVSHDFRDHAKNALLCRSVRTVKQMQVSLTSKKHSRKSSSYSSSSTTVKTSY
SMILES,Activity [1],Activity [3],Activity [5],Activity [6],Activity [7],Activity [2],Activity [4],Activity [8]
CN(C)c1ccc(O)c2c1C[C@H]1C[C@H]3[C@H](N(C)C)C(O)=C(C(N)=O)C(=O)[C@@]3(O)C(O)=C1C2=O [MINOCYCLINE],Active,inactive,Active,Active,Active,Non-toxic,Toxic,Non-toxic
C[C@H]1c2cccc(O)c2C(=O)C2=C(O)[C@]3(O)C(=O)C(C(N)=O)=C(O)[C@@H](N(C)C)[C@@H]3[C@@H](O)[C@@H]21.O [DOXYCYCLINE],Active,inactive,Active,Active,Active,Non-toxic,Toxic,Non-toxic

# The next lines start with results.
Activity [1],Activity [3],Activity [5],Activity [6],Activity [7],SMILES,Activity [2],Activity [4],Activity [8]
inactive,–,–,–,–,CC[C@H]1OC(=O)[C@H](C)[C@@H](O[C@H]2C[C@@](C)(OC)[C@@H](O)[C@H](C)O2)[C@H](C)[C@@H](O[C@@H]2O[C@H](C)C[C@H](N(C)C)[C@H]2O)[C@](C)(O)C[C@@H](C)/C(=N\OCOCCOC)[C@H](C)[C@@H](O)[C@]1(C)O,–,–,–
Active,inactive,inactive,Active,Active,CN(C)[C@@H]1C(O)=C(C(N)=O)C(=O)[C@@]2(O)C(O)=C3C(=O)c4c(O)cccc4[C@@](C)(O)[C@H]3C[C@@H]12 [TETRACYCLINE],Non-toxic,Toxic,Non-toxic
inactive,–,–,–,–,CC[C@H]1OC(=O)[C@H](C)[C@@H](O[C@H]2C[C@@](C)(OC)[C@@H](O)[C@H](C)O2)[C@H](C)[C@@H](O[C@@H]2O[C@H](C)C[C@H](N(C)C)[C@H]2O)[C@](C)(OC)C[C@@H](C)C(=O)[C@H](C)[C@@H](O)[C@]1(C)O,–,–,–
